Values of other authors as cited in paper PMC12390126, “Human Skin Permeation of Ethoxy- and Propoxypropanol Commonly Found in Water-Based Products” (Toxics, 2025).
Like-named read-outs stand apart in the source and are kept apart here.

Experiments:
[1] = design: method as in PMID 15251185; details: frozen full thickness skin (1 mm), 32 °C, 57.8 mg/cm^2, 8 h; cited from earlier work
[2] = frozen full thickness skin, 32 °C, 4 h, cited from earlier work; for J ± SD / Kp ± SD: 56.1-61.7 mg/cm^2
[3] = dermatomed 0.8 mm, 32 °C, 24 h, cited from earlier work; for J ± SD / Kp ± SD: 109.6 (PGME) or 100.0 (PGBE) mg/cm^2

Compound	J ± SD [1] [µg/cm^2/h]	Kp ± SD [1]	Tlag ± SD [1] [h]	J ± SD [2] [µg/cm^2/h]	Kp ± SD [2]	Tlag ± SD [2] [h]	J ± SD ([3]; fresh skin) [µg/cm^2/h]	Kp ± SD ([3]; fresh skin)	Tlag ± SD ([3]; fresh skin) [h]	J ± SD ([3]; frozen skin) [µg/cm^2/h]	Kp ± SD ([3]; frozen skin)	Tlag ± SD ([3]; frozen skin) [h]
dipropylene glycol methyl ether [DPGME]	106.3 ± 37.6	0.11 ± 0.04 10^−3 cm/h	1.51 ± 0.48	–	–	–	–	–	–	–	–	–
COCC(C)OC(C)=O (stereo not drawn) [PGMEac, propylene glycol methyl ether acetate]	–	–	–	59 ± 44	0.06 ± 0.006 10^−3 cm/h	0.5 ± 0.05	–	–	–	–	–	–
CCCCOCC(C)O (stereo not drawn) [PGBE, propylene glycol butyl ether]	–	–	–	17 ± 5	0.02 ± 0.005 10^−3 cm/h	0.62 ± 0.03	7.93 ± 1.57	0.009 ± 0.002 10^−3 cm/h	0.89 ± 0.13	44.1 ± 16.2	0.05 ± 0.02 10^−3 cm/h	0.86 ± 0.23
